Reference: US9102614B2, “Naphth-2-ylacetic acid derivatives to treat AIDS” (Gilead Sciences, Inc., priority 2010, dated 2015)
Where two headings read alike, the source gives them in different places.

System: HIV-IIIb
Experiment: Test A: Antiviral Assays in MT4 Cells
Assay type: cell-based
Conditions: MT-4 cells infected with HIV-IIIb (0.004 m.o.i.), 5 days of incubation, CellTiter-Glo chemiluminescence readout, read-out: EC50
Outline: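 MT-4 cells pre-infected with HIV-IIIb (0.004 m.o.i.) at 37 °C, then plated with 3-fold serially diluted compound (10 concentrations, quadruplicate, RPMI 1640/10% FBS). After 5 days at 37 °C, cell viability read by CellTiter-Glo chemiluminescence; mock-infected cells run in parallel.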

[1] = Human immunodeficiency virus 1, IIIB, MT4, 120 h

Structure (SMILES)	EC50 [1] [nM]	EC50 [nM]
Cc1cc2c(F)cc(F)cc2c(-c2ccc3c4c(ccnc24)CCO3)c1[C@H](OC(C)(C)C)C(=O)O (atropisomer, axis not shown) [Compound 172]	50000	–
Cc1cc2cc(C3CC3)c(F)cc2c(-c2ccc3c4c(ccnc24)CCO3)c1[C@H](OC(C)(C)C)C(=O)O (atropisomer, axis not shown) [Compound 170]	29000	–
Cc1cc2cc(C(F)F)c(F)cc2c(-c2ccc3c4c(ccnc24)CCO3)c1[C@H](OC(C)(C)C)C(=O)O [Compound 103, (S)-2-tert-Butoxy-2-((R)-6-(difluoromethyl)-1-(2,3-dihydropyrano[4,3,2-de]quinolin-7-yl)-7-fluoro-3-methylnaphthalen-2-yl)acetic acid]	–	26
Cc1cc2c(F)c(CN(C)C)ccc2c(-c2ccc3c4c(ccnc24)CCO3)c1[C@H](OC(C)(C)C)C(=O)O [Compound 186A, (S)-2-tert-butoxy-2-((R)-1-(2,3-dihydropyrano[4,3,2-de]quinolin-7-yl)-6-((dimethylamino)methyl)-5-fluoro-3-methylnaphthalen-2-yl)acetic acid]	–	1690
CNC(=O)c1cc2cc(C)c([C@H](OC(C)(C)C)C(=O)O)c(-c3ccc4c5c(ccnc35)CCO4)c2cc1F [Compound 107, (S)-2-tert-Butoxy-2-((R)-1-(2,3-dihydropyrano[4,3,2-de]quinolin-7-yl)-7-fluoro-3-methyl-6-(methylcarbamoyl)naphthalen-2-yl)acetic acid]	–	92
Cc1cc2ccccc2c(-c2ccc3c4c2NCCC4CCO3)c1[C@H](OC(C)(C)C)C(=O)O (stereo partly drawn) [Compound 20, (2S)-2-tert-Butoxy-2-(1-((7R)-2,3,3a,4,5,6-hexahydropyrano[4,3,2de]quinolin-7-yl)-3-methylnaphthalen-2-yl)acetic acid]	93	–
Cc1c(C(OC(C)(C)C)C(=O)O)c(-c2ccc(Cl)cc2)c2ccccc2c1CO (stereo not drawn) [Compound 135, 2-tert-Butoxy-2-(1-(4-chlorophenyl)-4-(hydroxymethyl)-3-methylnaphthalen-2-yl)acetic acid]	45	–
Cc1cc2c(Cl)cc(F)cc2c(-c2ccc3c4c(ccnc24)CCO3)c1[C@H](OC(C)(C)C)C(=O)O [Compound 111, (2S)-2-tert-Butoxy-2-(5-chloro-1-(2,3-dihydropyrano[4,3,2-de]quinolin-7-yl)-7-fluoro-3-methylnaphthalen-2-yl)acetic acid]	1100	–
Cc1cc2c(Cl)c(C)ccc2c(-c2ccc3c4c(ccnc24)CCO3)c1[C@H](OC(C)(C)C)C(=O)O (atropisomer, axis not shown) [Compound 151]	850	–
Cc1cc2cc(F)ccc2c(-c2ccc3c4c(ccnc24)CCO3)c1C(OC(C)(C)C)C(=O)O (stereo not drawn) [Compound 162]	–	1400
Cc1cc2cc(C(F)F)c(F)cc2c(-c2ccc3c4c(ccnc24)CCO3)c1[C@H](OC(C)(C)C)C(=O)O (atropisomer, axis not shown) [Compound 164]	25000	–
Cc1cc2cc(F)c(F)cc2c(-c2ccc3c4c(ccnc24)CCO3)c1[C@H](OC(C)(C)C)C(=O)O (atropisomer, axis not shown) [Compound 174]	3200	–
CN(C)Cc1cc2ccccc2c(-c2ccc(Cl)cc2)c1[C@H](OC(C)(C)C)C(=O)O [Compound 24, (S)-2-tert-Butoxy-2-(1-(4-chlorophenyl)-3-(dimethylaminomethyl)naphthalen-2-yl)acetic acid]	29000	–
Cc1cc2ccccc2c(C2=CCC3(CC2)CC3)c1[C@H](OC(C)(C)C)C(=O)O [Compound 15, (S)-2-tert-Butoxy-2-(3-methyl-1-(spiro[2.5]oct-5-en-6-yl)naphthalen-2-yl)acetic acid]	15	–
Cc1cc2ccc(C#CC3(N)CCCCC3)cc2c(-c2ccc(Cl)cc2)c1C(OC(C)(C)C)C(=O)O (stereo not drawn) [Compound 84, 2-(7-((1-Aminocyclohexyl)ethynyl)-1-(4-chlorophenyl)-3-methylnaphthalen-2-yl)-2-tert-butoxyacetic acid]	14	–
Cc1cc2ccccc2c(-c2ccc(F)c3cccnc23)c1[C@H](OC(C)(C)C)C(=O)O [Compound 160]	–	36000
CCc1ccc2c(-c3ccc4c5c(ccnc35)CCO4)c([C@H](OC(C)(C)C)C(=O)O)c(C)cc2c1F (atropisomer, axis not shown) [Compound 120, (S)-2-tert-Butoxy-2-((R)-1-(2,3-dihydropyrano[4,3,2-de]quinolin-7-yl)-6-ethyl-5-fluoro-3-methylnaphthalen-2-yl)acetic acid]	32	–
Cc1cc2ccc(C#CC3CCCC3)cc2c(-c2ccc(Cl)cc2)c1C(OC(C)(C)C)C(=O)O (stereo not drawn) [Compound 74, 2-tert-Butoxy-2-(1-(4-chlorophenyl)-7-(cyclopentylethynyl)-3-methylnaphthalen-2-yl)acetic acid]	1200	–
Cc1cc2ccc(CCC3(O)CCCC3)cc2c(-c2ccc(Cl)cc2)c1C(OC(C)(C)C)C(=O)O (stereo not drawn) [Compound 91, 2-tert-butoxy-2-(1-(4-chlorophenyl)-7-(2-(1-hydroxycyclopentyl)ethyl)-3-methylnaphthalen-2-yl)acetic acid]	250	–
Cc1cc2ccccc2c(-c2cccc3cccnc23)c1[C@H](OC(C)(C)C)C(=O)O [Compound 4K, (S)-2-tert-butoxy-2-((R)-3-methyl-1-(quinolin-8-yl)naphthalen-2-yl)acetic acid]	–	301
Cc1cc2ccc(C#CC3(O)CCCC3)cc2c(-c2ccc(Cl)cc2)c1C(OC(C)(C)C)C(=O)O (stereo not drawn) [Compound 73, 2-tert-butoxy-2-(1-(4-chlorophenyl)-7-((1-hydroxycyclopentyl)ethynyl)-3-methylnaphthalen-2-yl)acetic acid]	130	–
C=Cc1c(C)c(C(OC(C)(C)C)C(=O)O)c(-c2ccc(Cl)cc2)c2ccccc12 (stereo not drawn) [Compound 128, 2-tert-Butoxy-2-(1-(4-chlorophenyl)-3-methyl-4-vinylnaphthalen-2-yl)acetic acid]	5300	–
CC(C)(C)O[C@H](C(=O)O)c1c(CO)cc2ccccc2c1-c1ccc(Cl)cc1 [Compound 30, (S)-2-tert-Butoxy-2-(1-(4-chlorophenyl)-3-(hydroxymethyl)naphthalen-2-yl)acetic acid]	44	–
Cc1cc2ccccc2c(-c2ccc3c4c(cc[n+]([O-])c24)CCO3)c1[C@H](OC(C)(C)C)C(=O)O [Compound 23, 7-((R)-2-((S)-tert-Butoxy(carboxy)methyl)-3-methylnaphthalen-1-yl)-2,3-dihydropyrano[4,3,2-de]quinoline 6-oxide]	–	24
Cc1cc2ccc(C#Cc3cncn3C)cc2c(-c2ccc(Cl)cc2)c1C(OC(C)(C)C)C(=O)O (stereo not drawn) [Compound 81, 2-tert-Butoxy-2-(1-(4-chlorophenyl)-3-methyl-7-((1-methyl-1H-imidazol-5-yl)ethynyl)naphthalen-2-yl)acetic acid]	150	–
Cc1cc2ccc(Cl)cc2c(-c2ccc(Cl)cc2)c1C(OC(C)(C)C)C(=O)O (stereo not drawn) [Compound 149, 2-tert-Butoxy-2-(7-chloro-1-(4-chlorophenyl)-3-methylnaphthalen-2-yl)acetic acid]	200	–
Cc1c(C(OC(C)(C)C)C(=O)O)c(-c2ccc(Cl)cc2)c2ccccc2c1C#N (stereo not drawn) [Compound 147, 2-tert-Butoxy-2-(1-(4-chlorophenyl)-4-cyano-3-methylnaphthalen-2-yl)acetic acid]	1100	–
Cc1cc2c(C)cccc2c(-c2ccc(Cl)cc2)c1C(OC(C)(C)C)C(=O)O (stereo not drawn) [Compound 40, 2-tert-Butoxy-2-(1-(4-chlorophenyl)-3,5-dimethylnaphthalen-2-yl)acetic acid]	210	–
Cc1cc2ccc(C#CC(C)(O)c3ccccc3)cc2c(-c2ccc(Cl)cc2)c1C(OC(C)(C)C)C(=O)O (stereo not drawn) [Compound 88, 2-tert-Butoxy-2-(1-(4-chlorophenyl)-7-(3-hydroxy-3-phenylbut-1-ynyl)-3-methylnaphthalen-2-yl)acetic acid]	24	–
Cc1ccc2cc(C)c(C(OC(C)(C)C)C(=O)O)c(-c3ccc(Cl)cc3)c2c1 (stereo not drawn) [Compound 78, 2-tert-Butoxy-2-(1-(4-chlorophenyl)-3,7-dimethylnaphthalen-2-yl)acetic acid]	300	–
